Source: ChEMBL document CHEMBL4800722, “Data for DCP probe BI 605906” (2021)

Legend:
[1] = target: Leukotriene C4 synthase (Cavia porcellus) (UniProt A6XA80); details: Compound concentration 10.0 uM
[2] = target: Dual specificity mitogen-activated protein kinase kinase 2 (Homo sapiens) (UniProt P36507); details: Compound concentration 1.0 uM
[3] = target: 5-hydroxytryptamine receptor 3A (Homo sapiens) (UniProt P46098); details: Compound concentration 10.0 uM
[4] = target: CDK6/cyclin D1 (Homo sapiens) (UniProt P24385+Q00534); details: Compound concentration 1.0 uM
[5] = target: Sigma intracellular receptor 2 (Homo sapiens) (UniProt Q5BJF2); details: Compound concentration 10.0 uM
[6] = target: Serine/threonine-protein kinase 17A (Homo sapiens) (UniProt Q9UEE5); assay: STK17A Invitrogen Lab (UK) kinase screen (BI); details: Compound concentration 1.0 uM
[7] = target: Cyclin-C/Cyclin-dependent kinase 19 (Homo sapiens) (UniProt Q9BWU1+P24863); assay: CDK11/CYCLIN C Invitrogen Lab (UK) kinase screen (BI); assay type: protein-complex assay; details: Compound concentration 1.0 uM
[8] = target: Cyclin-dependent kinase 13/Cyclin-K (Homo sapiens) (UniProt Q14004+O75909); assay: CDK13/CYCLIN K Invitrogen Lab (UK) kinase screen (BI); assay type: protein-complex assay; details: Compound concentration 1.0 uM
[9] = target: Voltage-dependent L-type calcium channel subunit alpha-1C (CA+/DHPSI/RA) (Rattus norvegicus, UniProt P22002); assay: CA+/DHPSI/RA Eurofins SafetyScreen44 (BI); details: read-out: % Ctrl
[10] = target: MAP kinase-interacting serine/threonine-protein kinase 1 (Homo sapiens) (UniProt Q9BUB5); assay: MNK1 DUNDEE kinase screen (BI); details: Compound concentration 10.0 uM
[11] = target: Serine/threonine-protein kinase PAK 3 (Homo sapiens) (UniProt O75914); details: Compound concentration 1.0 uM
[12] = target: Dual specificity tyrosine-phosphorylation-regulated kinase 2 (Homo sapiens) (UniProt Q92630); assay: DYRK2 Invitrogen Lab (UK) kinase screen (BI); details: Compound concentration 1.0 uM
[13] = target: GABA B receptor (Rattus norvegicus) (UniProt Q9Z0U4+O88871); assay: GABAB/RA Eurofins SafetyScreen44 (BI); assay type: protein-complex assay; details: Compound concentration 10.0 uM
[14] = target: Alpha-2C adrenergic receptor (Homo sapiens) (UniProt P18825); details: Compound concentration 10.0 uM
[15] = target: BDNF/NT-3 growth factors receptor (Homo sapiens) (UniProt Q16620); details: Compound concentration 1.0 uM
[16] = target: Serine/threonine-protein kinase TBK1 (Homo sapiens) (UniProt Q9UHD2); details: Compound concentration 1.0 uM
[17] = target: Polyunsaturated fatty acid lipoxygenase ALOX12 (Homo sapiens) (UniProt P18054); details: Compound concentration 10.0 uM
[18] = target: Phosphatidylinositol 3-kinase C2 domain-containing subunit gamma (Homo sapiens) (UniProt O75747); details: Compound concentration 1.0 uM
[19] = target: G protein-coupled receptor kinase 4 (Homo sapiens) (UniProt P32298); details: Compound concentration 1.0 uM
[20] = target: Calcium/calmodulin-dependent protein kinase type II subunit gamma (Homo sapiens) (UniProt Q13555); details: Compound concentration 1.0 uM
[21] = target: 5-hydroxytryptamine receptor 1D (Homo sapiens) (UniProt P28221); details: Compound concentration 10.0 uM
[22] = target: Casein kinase I isoform alpha (Homo sapiens) (UniProt P48729); details: Compound concentration 1.0 uM
[23] = target: AMPK alpha1/beta1/gamma3 (Homo sapiens) (UniProt Q9Y478+Q13131+Q9UGI9); assay: AMPK (A1/B1/G3) Invitrogen Lab (UK) kinase screen (BI); assay type: protein-complex assay; details: Compound concentration 1.0 uM
[24] = target: Tyrosine-protein kinase Blk (Homo sapiens) (UniProt P51451); assay: BLK Invitrogen Lab (UK) kinase screen (BI); details: Compound concentration 1.0 uM
[25] = target: MAP/microtubule affinity-regulating kinase 4 (Homo sapiens) (UniProt Q96L34); details: Compound concentration 1.0 uM
[26] = target: Serine/threonine-protein kinase Sgk1 (Homo sapiens) (UniProt O00141); details: Compound concentration 10.0 uM
[27] = target: Aurora kinase A (Homo sapiens) (UniProt O14965)
[28] = target: Ephrin type-B receptor 3 (Homo sapiens) (UniProt P54753); details: Compound concentration 1.0 uM
[29] = target: Cannabinoid receptor 2 (Homo sapiens) (UniProt P34972); details: Compound concentration 10.0 uM
[30] = target: Tyrosine-protein kinase HCK (Homo sapiens) (UniProt P08631); details: Compound concentration 1.0 uM
[31] = target: Activin receptor type-1-like (Homo sapiens) (UniProt P37023); assay: ACVRL1 (ALK1) Invitrogen Lab (UK) kinase screen (BI); details: Compound concentration 1.0 uM
[32] = target: Beta-3 adrenergic receptor (Homo sapiens) (UniProt P13945); details: Compound concentration 10.0 uM
[33] = target: Phosphodiesterase 4 (Homo sapiens) (UniProt P27815+Q08499+Q07343+Q08493); assay: PDE-IV/HU Eurofins SafetyScreen44 (BI); assay type: protein assay; details: Compound concentration 10.0 uM
[34] = target: Aurora kinase C (Homo sapiens) (UniProt Q9UQB9); details: Compound concentration 1.0 uM
[35] = target: Dual specificity protein kinase CLK1 (Homo sapiens) (UniProt P49759); details: Compound concentration 1.0 uM
[36] = target: Rho-associated protein kinase 1 (Homo sapiens) (UniProt Q13464); assay: ROCK1 Invitrogen Lab (UK) kinase screen (BI)
[37] = target: Death-associated protein kinase 2 (Homo sapiens) (UniProt Q9UIK4); assay: DAPK2 Invitrogen Lab (UK) kinase screen (BI); details: Compound concentration 1.0 uM
[38] = target: Ribosomal protein S6 kinase alpha-1 (Homo sapiens) (UniProt Q15418); assay: MAPKAPK1A DUNDEE kinase screen (BI); details: Rattus norvegicus; Compound concentration 10.0 uM
[39] = target: Prostaglandin G/H synthase 1 (Homo sapiens) (UniProt P23219); details: Compound concentration 10.0 uM
[40] = target: Mu-type opioid receptor (Homo sapiens) (UniProt P35372); details: Compound concentration 10.0 uM
[41] = target: Serine/threonine-protein kinase D3 (Homo sapiens) (UniProt O94806); details: Compound concentration 1.0 uM

Chain of Voltage-dependent L-type calcium channel subunit alpha-1C (CA+/DHPSI/RA) (P22002 whole entry): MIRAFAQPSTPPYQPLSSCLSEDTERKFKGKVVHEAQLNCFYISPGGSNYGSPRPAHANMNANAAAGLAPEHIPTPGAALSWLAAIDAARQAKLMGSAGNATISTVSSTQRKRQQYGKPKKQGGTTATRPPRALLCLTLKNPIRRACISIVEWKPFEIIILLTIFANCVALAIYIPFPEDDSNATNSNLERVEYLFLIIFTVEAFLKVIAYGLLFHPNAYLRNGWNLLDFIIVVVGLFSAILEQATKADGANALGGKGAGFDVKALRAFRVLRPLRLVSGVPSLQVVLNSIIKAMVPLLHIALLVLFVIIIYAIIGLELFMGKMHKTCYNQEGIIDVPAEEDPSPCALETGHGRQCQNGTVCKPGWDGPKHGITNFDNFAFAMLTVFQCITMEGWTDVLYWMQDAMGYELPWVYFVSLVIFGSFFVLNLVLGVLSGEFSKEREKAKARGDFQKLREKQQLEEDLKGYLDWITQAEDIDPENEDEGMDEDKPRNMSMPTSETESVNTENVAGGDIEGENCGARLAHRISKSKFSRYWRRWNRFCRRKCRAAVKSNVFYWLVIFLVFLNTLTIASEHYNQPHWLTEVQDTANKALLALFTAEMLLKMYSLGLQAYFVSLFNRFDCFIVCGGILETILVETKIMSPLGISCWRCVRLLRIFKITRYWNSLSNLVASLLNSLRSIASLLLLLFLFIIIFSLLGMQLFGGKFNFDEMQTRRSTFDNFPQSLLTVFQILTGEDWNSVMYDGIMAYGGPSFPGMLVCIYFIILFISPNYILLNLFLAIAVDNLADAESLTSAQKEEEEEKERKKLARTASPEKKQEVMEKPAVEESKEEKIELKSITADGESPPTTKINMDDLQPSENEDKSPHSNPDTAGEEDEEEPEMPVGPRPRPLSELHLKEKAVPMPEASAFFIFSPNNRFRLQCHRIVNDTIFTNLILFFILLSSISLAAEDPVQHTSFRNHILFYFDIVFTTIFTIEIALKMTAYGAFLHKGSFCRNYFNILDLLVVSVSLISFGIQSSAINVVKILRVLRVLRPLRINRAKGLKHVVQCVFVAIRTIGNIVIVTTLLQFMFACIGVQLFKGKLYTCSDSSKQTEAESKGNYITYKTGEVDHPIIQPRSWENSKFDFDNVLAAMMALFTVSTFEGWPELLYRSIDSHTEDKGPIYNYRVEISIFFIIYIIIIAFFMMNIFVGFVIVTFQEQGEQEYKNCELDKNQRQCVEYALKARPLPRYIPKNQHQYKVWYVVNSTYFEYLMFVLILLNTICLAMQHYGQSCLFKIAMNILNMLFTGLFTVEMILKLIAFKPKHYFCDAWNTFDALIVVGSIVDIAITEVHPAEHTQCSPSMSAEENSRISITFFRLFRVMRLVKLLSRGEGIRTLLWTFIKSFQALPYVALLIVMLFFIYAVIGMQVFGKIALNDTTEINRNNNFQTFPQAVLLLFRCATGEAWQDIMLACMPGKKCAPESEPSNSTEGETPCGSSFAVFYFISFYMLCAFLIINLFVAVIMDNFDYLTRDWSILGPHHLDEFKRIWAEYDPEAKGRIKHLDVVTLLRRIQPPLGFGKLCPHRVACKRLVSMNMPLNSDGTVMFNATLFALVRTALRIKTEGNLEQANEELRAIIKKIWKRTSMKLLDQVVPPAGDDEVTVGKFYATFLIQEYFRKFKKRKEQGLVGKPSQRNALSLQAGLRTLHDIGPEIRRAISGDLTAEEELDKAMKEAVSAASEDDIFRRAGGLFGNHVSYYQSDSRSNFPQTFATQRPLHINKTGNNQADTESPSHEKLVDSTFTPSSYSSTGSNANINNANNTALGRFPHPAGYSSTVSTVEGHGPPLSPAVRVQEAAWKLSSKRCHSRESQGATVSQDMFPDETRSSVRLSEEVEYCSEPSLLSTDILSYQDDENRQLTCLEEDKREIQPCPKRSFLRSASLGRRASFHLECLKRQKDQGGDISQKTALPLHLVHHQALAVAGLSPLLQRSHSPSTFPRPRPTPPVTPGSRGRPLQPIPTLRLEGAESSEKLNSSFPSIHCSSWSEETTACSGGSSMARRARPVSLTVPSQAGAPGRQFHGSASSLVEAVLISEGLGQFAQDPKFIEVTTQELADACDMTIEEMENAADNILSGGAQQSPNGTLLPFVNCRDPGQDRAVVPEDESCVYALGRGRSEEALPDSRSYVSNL
Chain of Aurora kinase A (Homo sapiens) (O14965 whole entry): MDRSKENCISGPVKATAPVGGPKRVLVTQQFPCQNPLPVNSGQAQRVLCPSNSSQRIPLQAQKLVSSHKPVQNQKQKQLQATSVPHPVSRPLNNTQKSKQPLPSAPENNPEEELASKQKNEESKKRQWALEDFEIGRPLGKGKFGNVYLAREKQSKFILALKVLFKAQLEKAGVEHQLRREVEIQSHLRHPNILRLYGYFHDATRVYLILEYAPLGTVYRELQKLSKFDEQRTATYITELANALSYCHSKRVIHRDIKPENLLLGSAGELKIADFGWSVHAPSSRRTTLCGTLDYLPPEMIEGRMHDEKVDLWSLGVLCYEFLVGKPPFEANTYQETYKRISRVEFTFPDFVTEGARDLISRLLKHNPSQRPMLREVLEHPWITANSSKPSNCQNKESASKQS
Chain of Rho-associated protein kinase 1 (Homo sapiens) (Q13464 2-1354 limits assumed): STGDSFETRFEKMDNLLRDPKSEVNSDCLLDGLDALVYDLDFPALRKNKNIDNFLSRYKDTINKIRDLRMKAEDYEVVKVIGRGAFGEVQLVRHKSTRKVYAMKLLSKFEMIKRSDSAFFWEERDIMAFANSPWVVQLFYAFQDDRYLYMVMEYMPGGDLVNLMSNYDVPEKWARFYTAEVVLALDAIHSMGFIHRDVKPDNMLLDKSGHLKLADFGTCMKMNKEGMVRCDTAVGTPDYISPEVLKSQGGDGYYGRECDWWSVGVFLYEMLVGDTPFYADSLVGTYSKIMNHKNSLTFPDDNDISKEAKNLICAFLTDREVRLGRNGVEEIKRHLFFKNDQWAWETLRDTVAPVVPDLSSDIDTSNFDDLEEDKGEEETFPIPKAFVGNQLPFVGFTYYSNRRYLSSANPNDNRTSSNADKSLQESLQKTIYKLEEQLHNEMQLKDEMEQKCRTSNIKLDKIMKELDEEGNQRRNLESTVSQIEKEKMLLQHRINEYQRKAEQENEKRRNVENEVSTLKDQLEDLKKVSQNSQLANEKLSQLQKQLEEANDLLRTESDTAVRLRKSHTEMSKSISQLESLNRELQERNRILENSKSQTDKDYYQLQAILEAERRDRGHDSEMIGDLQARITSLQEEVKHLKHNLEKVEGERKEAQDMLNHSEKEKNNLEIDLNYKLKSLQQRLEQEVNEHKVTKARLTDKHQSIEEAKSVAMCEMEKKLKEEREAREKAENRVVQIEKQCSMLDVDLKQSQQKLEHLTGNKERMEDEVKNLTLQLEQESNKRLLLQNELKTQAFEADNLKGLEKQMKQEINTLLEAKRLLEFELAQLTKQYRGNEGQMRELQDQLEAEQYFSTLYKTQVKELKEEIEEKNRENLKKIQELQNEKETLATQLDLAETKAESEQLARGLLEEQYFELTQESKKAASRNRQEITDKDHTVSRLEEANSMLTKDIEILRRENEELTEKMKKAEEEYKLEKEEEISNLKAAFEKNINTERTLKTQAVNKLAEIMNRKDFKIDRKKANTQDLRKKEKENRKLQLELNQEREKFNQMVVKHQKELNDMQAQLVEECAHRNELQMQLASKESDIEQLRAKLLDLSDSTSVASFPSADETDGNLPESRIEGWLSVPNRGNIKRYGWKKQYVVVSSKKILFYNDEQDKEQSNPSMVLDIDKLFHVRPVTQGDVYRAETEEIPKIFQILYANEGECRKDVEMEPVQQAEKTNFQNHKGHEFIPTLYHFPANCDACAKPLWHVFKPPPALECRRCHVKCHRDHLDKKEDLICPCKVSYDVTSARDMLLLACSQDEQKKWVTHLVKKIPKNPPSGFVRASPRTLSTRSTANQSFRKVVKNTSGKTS
Chain of Aurora kinase C (Homo sapiens) (Q9UQB9 whole entry): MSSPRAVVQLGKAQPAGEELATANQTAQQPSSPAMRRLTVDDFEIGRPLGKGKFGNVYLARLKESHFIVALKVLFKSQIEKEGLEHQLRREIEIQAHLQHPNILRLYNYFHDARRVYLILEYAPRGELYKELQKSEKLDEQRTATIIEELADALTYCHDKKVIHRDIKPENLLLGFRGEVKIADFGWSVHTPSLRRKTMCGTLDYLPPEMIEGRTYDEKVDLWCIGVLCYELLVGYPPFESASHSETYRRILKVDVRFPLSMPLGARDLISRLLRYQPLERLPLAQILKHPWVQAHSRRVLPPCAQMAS
Chain of Calcium/calmodulin-dependent protein kinase type II subunit gamma (Homo sapiens) (Q13555 whole entry): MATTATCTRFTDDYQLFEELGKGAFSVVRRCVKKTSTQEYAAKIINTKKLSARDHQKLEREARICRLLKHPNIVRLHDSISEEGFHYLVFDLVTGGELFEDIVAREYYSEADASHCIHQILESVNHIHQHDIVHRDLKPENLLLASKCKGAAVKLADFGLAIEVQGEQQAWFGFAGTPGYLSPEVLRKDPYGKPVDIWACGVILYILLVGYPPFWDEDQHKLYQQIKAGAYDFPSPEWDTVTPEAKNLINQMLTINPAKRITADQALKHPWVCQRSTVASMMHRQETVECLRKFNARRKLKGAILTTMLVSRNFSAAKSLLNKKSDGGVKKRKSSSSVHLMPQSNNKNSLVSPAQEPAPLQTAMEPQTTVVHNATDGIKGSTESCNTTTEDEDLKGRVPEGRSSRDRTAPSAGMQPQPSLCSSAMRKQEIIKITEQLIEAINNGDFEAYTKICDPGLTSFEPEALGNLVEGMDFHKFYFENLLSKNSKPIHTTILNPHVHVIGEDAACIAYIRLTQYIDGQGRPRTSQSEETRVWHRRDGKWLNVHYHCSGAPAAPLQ
Chain of Sigma intracellular receptor 2 (Homo sapiens) (Q5BJF2 whole entry): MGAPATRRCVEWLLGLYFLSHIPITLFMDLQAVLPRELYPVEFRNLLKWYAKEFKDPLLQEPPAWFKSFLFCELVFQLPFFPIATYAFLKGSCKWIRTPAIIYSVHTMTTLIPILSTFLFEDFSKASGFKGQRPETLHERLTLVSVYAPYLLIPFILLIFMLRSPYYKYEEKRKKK

Work on `CCC(F)(F)c1cc(N2CCC(S(C)(=O)=O)CC2)nc2sc(C(N)=O)c(N)c12` [BI-605906] yielded a residual activity [1] of 93%, a residual activity [2] of 91% and an inhibition [3] of -5.46%. It also gave a residual activity [4] of 100%, an inhibition [5] of 34.5% and a residual activity [6] of 80%. The residual activity [7] was 83%, the residual activity [8] was 85% and the activity at 1 µM ([9]; compound concentration 1 uM) was 104% (not active). The activity at 3 µM ([9]; compound concentration 3 uM) was 94% (not active), the activity at 10 µM ([9]; compound concentration 10 uM) was 91% (not active) and the activity at 30 µM ([9]; compound concentration 30 uM) was 77% (not active). For the same molecule, the activity at 100 µM ([9]; compound concentration 100 uM) was 41.5%, the residual activity [10] was 93.8% and the residual activity [11] was 101%. It also gave a residual activity [12] of 62%, a residual activity [13] of 113% and an inhibition [14] of 13.7%. For the same molecule, the residual activity [15] was 95%, the residual activity [16] was 96% and the residual activity [17] was 96%. The residual activity [18] was 90%, the residual activity [19] was 100% and the residual activity [20] was 90%. The inhibition [21] was 26.9%, the residual activity [22] was 98% and the residual activity [23] was 84%. For the same molecule, the residual activity [24] was 88%, the residual activity [25] was 100% and the residual activity [26] was 101%. The residual activity ([27]; Compound concentration 1.0 uM) was 93%, the residual activity ([27]; Compound concentration 10.0 uM) was 38% and the residual activity [28] was 99%. It also gave a residual activity [29] of 91%, a residual activity [30] of 90% and a residual activity [31] of 64%. The inhibition [32] was 18%, the residual activity [33] was 68% and the residual activity [34] was 95%. It also gave a residual activity [35] of 92%, a residual activity ([36]; Compound concentration 1.0 uM) of 88% and a residual activity ([36]; Compound concentration 10.0 uM) of 47%. It also gave a residual activity [37] of 79%, a residual activity [38] of 77.5% and a residual activity [39] of 105%. It also gave an inhibition [40] of 5.18% and a residual activity [41] of 91%.
